Columns and labels:
Cdk2(S181C) (C177A) = biological target: T1, Cdk2(S181C) (C177A) (Homo sapiens, UniProt P24941, C177A/S181C); test: Kinetic thiol consumption assay with Cdk2 mutant S181C; assay type: binding; set-up: key to Rate enhancement, Cdk2 S181C: rate constant with Cdk2 ÷ rate constant with model thiol (fold); conditions: additional mutation C177A; for Rate constant with Cdk2 S181C: Protein: Cdk2, cysteine position S181C, in h^-1
T1 construct: poly-histidine; made in house; host or cells: E. coli
In short: (§1)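 5 μM thiol, degassed phosphate pH 8, 2% v/v immobilized TCEP beads; 1 h RT; fluorescence ex 380/em 470 nm; normalized vs DMSO/thiol-only; first-order exponential decay fit → rate constant; Cdk2 k / model-thiol k = rate enhancement per acrylamide.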

Cdk2(S276C) (C177A) = biological target: T2, Cdk2(S276C) (C177A) (Homo sapiens, UniProt P24941, C177A/S276C); test: Kinetic thiol consumption assay with Cdk2 mutant S276C; assay type: binding; set-up: key to Rate enhancement, Cdk2 S276C: rate constant with Cdk2 ÷ rate constant with model thiol (fold); conditions: additional mutation C177A; for Rate constant with Cdk2 S276C: Protein: Cdk2, cysteine position S276C, in h^-1
T2 construct: poly-histidine; made in house; host or cells: E. coli
In short: as §1

[1] = Kinetic thiol consumption assay with model thiol glutathione; assay type: physicochemical; set-up: Rate constant with glutathione (k(GSH)): unit not given here; conditions: for Rate constant with glutathione (k(GSH)): 500 μM ligand, 5 μM thiol, phosphate buffer pH 8; for Rate constant with Glutathione: Protein: Glutathione, cysteine position NA, in h-1
In short: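 GSH 5 μM, degassed phosphate buffer pH 8, TCEP beads 2% v/v; acrylamide added; RT, 1 h; fluorescence ex/em 380/470 nm; normalized to DMSO/thiol control; k from first-order exponential decay fit.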

Cdk2(T182C) (C177A) = biological target: T3, Cdk2(T182C) (C177A) (Homo sapiens, UniProt P24941, C177A/T182C); test: Kinetic thiol consumption assay with Cdk2 mutant T182C; assay type: binding; set-up: key to Rate enhancement, Cdk2 T182C: rate constant with Cdk2 ÷ rate constant with model thiol (fold); conditions: additional mutation C177A; for Rate constant with Cdk2 T182C: Protein: Cdk2, cysteine position T182C, in h^-1
T3 construct: poly-histidine; made in house; host or cells: E. coli
In short: as §1

Cdk2(H71C) (C177A) = biological target: T4, Cdk2(H71C) (C177A) (Homo sapiens, UniProt P24941, C177A/H71C); test: Kinetic thiol consumption assay with Cdk2 mutant H71C; assay type: binding; set-up: key to Rate enhancement, Cdk2 H71C: rate constant with Cdk2 ÷ rate constant with model thiol (fold); conditions: additional mutation C177A; for Rate constant with Cdk2 H71C: Protein: Cdk2, cysteine position H71C, in h^-1
T4 construct: poly-histidine; made in house; host or cells: E. coli
In short: as §1

Cdk2(N272C) (C177A) = biological target: T5, Cdk2(N272C) (C177A) (Homo sapiens, UniProt P24941, C177A/N272C); test: Kinetic thiol consumption assay with Cdk2 mutant N272C; assay type: binding; set-up: key to Rate enhancement, Cdk2 N272: rate constant with Cdk2 ÷ rate constant with model thiol (fold); conditions: for Rate enhancement, Cdk2 N272: Cdk2 N272, additional mutation C177A; for Rate constant with Cdk2 N272C: Protein: Cdk2, cysteine position N272C, additional mutation C177A, in h^-1
T5 construct: poly-histidine; made in house; host or cells: E. coli
In short: as §1

Cdk2(C177A, F80C) = biological target: T6, Cdk2(C177A, F80C) (Homo sapiens, UniProt P24941, C177A/F80C); test: Kinetic thiol consumption assay with Cdk2 mutant F80C, incl. kobs versus concentration (Kd, k2); assay type: binding; set-up: key to Rate enhancement, Cdk2 F80C: Cdk2 rate constant divided by model-thiol rate constant; conditions: additional mutation C177A; for Rate constant with Cdk2 F80C: Protein: Cdk2, cysteine position F80C, in h^-1
T6 construct: poly-histidine; made in house; host or cells: E. coli
In short: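 His-tagged Cdk2(C177A/F80C) from E. coli or model thiol, 5 μM in degassed phosphate buffer pH 8 with TCEP beads, reacted with acrylamide ligands; fluorescence (ex/em 380/470 nm) normalized to DMSO control and fitted to first-order decay for kobs. Kd and k2 obtained from hyperbolic fit of kobs versus ligand concentration.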

Cdk2[C177A, F80C, K278C] = biological target: T7, Cdk2[C177A, F80C, K278C] (Homo sapiens, UniProt P24941, C177A/F80C/K278C); test: Kinetic thiol consumption assay with mutant Cdk2 as model thiol; assay type: binding; set-up: unit not given here; conditions: 500 μM ligand, 5 μM thiol, phosphate buffer pH 8
T7 construct: poly-histidine; made in house; host or cells: E. coli
In short: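 Model thiol: His-tagged human Cdk2 C177A/F80C/K278C (two engineered surface cysteines), E. coli-expressed, 5 μM in degassed phosphate buffer pH 8 with immobilized TCEP beads (2% v/v). Fluorescence (ex/em 380/470 nm) followed over time at room temperature, normalized to DMSO/thiol control. First-order decay fit gives rate constants.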

Cdk2(R122C) (C177A) = biological target: T8, Cdk2(R122C) (C177A) (Homo sapiens, UniProt P24941, C177A/R122C); test: Kinetic thiol consumption assay with Cdk2 mutant R122C; assay type: binding; set-up: key to Rate enhancement, Cdk2 R122C: rate constant with Cdk2 ÷ rate constant with model thiol (fold); conditions: additional mutation C177A; for Rate constant with Cdk2 R122C: Protein: Cdk2, cysteine position R122C, in h-1
T8 construct: poly-histidine; made in house; host or cells: E. coli
In short: as §1

[2] = biological target: T9, human cyclin-dependent kinase 2 (Cdk2) (Homo sapiens, UniProt P24941); test: Kinetic thiol consumption assay with wild type Cdk2 (C177); assay type: binding; set-up: key to Rate enhancement, Cdk2 WT: k(Cdk2) divided by k(model thiol); Rate constant with Cdk2 (k(Cdk2)): unit not given here; conditions: for Rate constant with Cdk2 (k(Cdk2)): 500 μM ligand, 5 μM thiol, phosphate buffer pH 8; for Rate enhancement, Cdk2 WT: no additional mutations; for Rate constant with Cdk2 WT: Protein: Cdk2, cysteine position WT, in h^-1; for k(Cdk2)/k(Cdk2_mut) rate enhancement: model thiol Cdk2[C177A, F80C, K278C]; for k(Cdk2)/k(GSH) rate enhancement: model thiol glutathione
T9 construct: poly-histidine; made in house; host or cells: E. coli
In short: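 Rate constants came from first-order exponential decay fits of normalized fluorescence against time, with thiol (5 μM) in degassed pH 8 phosphate buffer containing 2% v/v TCEP beads and reads after 1 h at room temperature.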

Compound | Rate enhancement, Cdk2 S181C (Cdk2(S181C) (C177A)) | Rate constant with Cdk2 S181C (Cdk2(S181C) (C177A)) | Rate enhancement, Cdk2 S276C (Cdk2(S276C) (C177A)) | Rate constant with Cdk2 S276C (Cdk2(S276C) (C177A)) | Rate constant with glutathione (k(GSH)) [1] | Rate constant with Glutathione [1] | Rate enhancement, Cdk2 T182C (Cdk2(T182C) (C177A)) | Rate constant with Cdk2 T182C (Cdk2(T182C) (C177A)) | Rate enhancement, Cdk2 H71C (Cdk2(H71C) (C177A)) | Rate constant with Cdk2 H71C (Cdk2(H71C) (C177A)) | Rate enhancement, Cdk2 N272 (Cdk2(N272C) (C177A)) | Rate constant with Cdk2 N272C (Cdk2(N272C) (C177A)) | Rate enhancement, Cdk2 F80C (Cdk2(C177A, F80C)) | Rate constant with Cdk2 F80C (Cdk2(C177A, F80C)) | Rate constant with Cdk2[C177A, F80C, K278C] (k(Cdk2_mut)) (Cdk2[C177A, F80C, K278C]) | Rate enhancement, Cdk2 R122C (Cdk2(R122C) (C177A)) | Rate constant with Cdk2 R122C (Cdk2(R122C) (C177A)) | Rate constant with Cdk2 (k(Cdk2)) [2] | Rate enhancement, Cdk2 WT [2] | Rate constant with Cdk2 WT [2] | also measured
C=CC(=O)Nc1cccc2ncccc12 [CA-012] | 2.504 | 0.1301 | 0.9852 | 0.05118 | 0.05132 | 0.05195 | 5.8 | 0.3013 | 0.317 | 0.01647 | 0.4189 | 0.02176 | 3.888 | 0.202 | 0.4157 | 0.6897 | 0.03583 | 0.09635 | 1.855 | 0.09635 | k(Cdk2)/k(Cdk2_mut) rate enhancement [2]: 0.2318; k(Cdk2)/k(GSH) rate enhancement [2]: 1.877
C=CC(=O)Nc1ccc(C(=O)OC)cc1 [CA-028] | 0.5066 | 0.03097 | 1.04 | 0.06356 | 0.05986 | 0.06113 | 5.246 | 0.3207 | 1.035 | 0.06327 | 0.7612 | 0.04653 | 1.175 | 0.07185 | 0.3138 | 0.3475 | 0.02124 | 0.1733 | 2.835 | 0.1733 | k(Cdk2)/k(Cdk2_mut) rate enhancement [2]: 0.5523; k(Cdk2)/k(GSH) rate enhancement [2]: 2.895
